pIC50: −log10 of the molar value.

This experiment concerns the target Xanthine dehydrogenase/oxidase (Homo sapiens, UniProt P47989). Description: Inhibition of xanthine oxidase.

Chain of Xanthine dehydrogenase/oxidase (P47989 whole entry): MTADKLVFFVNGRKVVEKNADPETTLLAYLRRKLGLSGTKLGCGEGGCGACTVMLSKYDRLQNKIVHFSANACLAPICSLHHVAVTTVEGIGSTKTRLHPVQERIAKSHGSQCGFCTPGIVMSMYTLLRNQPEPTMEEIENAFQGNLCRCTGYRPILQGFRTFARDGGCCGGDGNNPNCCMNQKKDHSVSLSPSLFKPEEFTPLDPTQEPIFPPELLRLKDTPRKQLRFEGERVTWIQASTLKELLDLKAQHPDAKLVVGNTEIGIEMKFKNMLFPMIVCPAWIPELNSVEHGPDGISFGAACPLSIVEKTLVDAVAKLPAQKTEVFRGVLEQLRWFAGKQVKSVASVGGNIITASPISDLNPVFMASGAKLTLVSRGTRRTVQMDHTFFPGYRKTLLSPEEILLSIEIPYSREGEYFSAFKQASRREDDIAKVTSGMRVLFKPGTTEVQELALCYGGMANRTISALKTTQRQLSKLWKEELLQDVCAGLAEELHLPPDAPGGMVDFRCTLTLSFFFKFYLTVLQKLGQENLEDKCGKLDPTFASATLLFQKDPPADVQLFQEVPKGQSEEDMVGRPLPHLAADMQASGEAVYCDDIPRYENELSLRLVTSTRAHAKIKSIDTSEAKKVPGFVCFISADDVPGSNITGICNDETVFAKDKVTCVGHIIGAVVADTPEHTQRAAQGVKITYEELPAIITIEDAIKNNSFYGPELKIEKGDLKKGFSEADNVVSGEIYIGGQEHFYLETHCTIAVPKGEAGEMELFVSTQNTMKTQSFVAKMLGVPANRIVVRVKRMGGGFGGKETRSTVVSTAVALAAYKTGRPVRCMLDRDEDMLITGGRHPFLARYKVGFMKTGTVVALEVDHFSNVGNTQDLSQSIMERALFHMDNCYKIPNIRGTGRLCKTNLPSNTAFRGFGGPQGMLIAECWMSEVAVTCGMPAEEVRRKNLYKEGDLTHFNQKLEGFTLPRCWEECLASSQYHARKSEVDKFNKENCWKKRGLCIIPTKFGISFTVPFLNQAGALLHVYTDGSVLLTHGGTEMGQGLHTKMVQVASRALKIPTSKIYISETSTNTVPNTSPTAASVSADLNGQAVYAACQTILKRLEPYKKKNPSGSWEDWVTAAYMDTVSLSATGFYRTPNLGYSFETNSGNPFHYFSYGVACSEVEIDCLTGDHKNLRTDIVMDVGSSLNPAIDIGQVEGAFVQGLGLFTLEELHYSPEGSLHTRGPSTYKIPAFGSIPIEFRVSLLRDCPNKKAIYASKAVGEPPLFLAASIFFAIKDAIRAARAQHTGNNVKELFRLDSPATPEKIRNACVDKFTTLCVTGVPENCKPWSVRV

For the compound `CCC(C)C(=O)C1C(=O)[C@@](C)(CC=C(C)C)C(=O)[C@@]2(C[C@H]3[C@H](CC[C@@]3(C)O)[C@](C)(O)C2)C1=O` (stereo partly specified), the pIC50 is 4.38.

The record behind these values is BindingDB's records for doi:10.1021/np8001145 (Kaohsiung Medical University, 2008).
